Values quoted from earlier work, collected in patent publication US20190000834A1, “INJECTABLE COMPOSITION AND A METHOD OF TREATMENT OF THE PHYSICAL ADDICTION” (VERITA RESEARCH PTE LTD, priority 2015, published 2019).

Tests used:
amphetamine dependence [1] = details: Naltrexone 50 mg along with CBT, 12 weeks
[2] = system: amphetamine dependent patients; details: naltrexone 50 mg
amphetamine dependence [3] = details: outpatients
[4] = system: methamphetamine self-administering animals

**Q.** With `O=C1CC[C@@]2(O)[C@H]3Cc4ccc(O)c5c4[C@@]2(CCN3CC2CC2)[C@H]1O5` [Naltrexone, (4R,4aS,7aR,12bS)-3-(cyclopropylmethyl)-4a,9-dihydroxy-2,4,5,6,7a,13-hexahydro-1H-4,12-methanobenzofuro [3,2-e] isoquinoline-7-one] as the compound, how does the tolerability (amphetamine dependence [1]) read?
**A.** The tolerability was “well tolerated”.

**Q.** What about the craving [2] of the same compound?
**A.** Its craving is “significantly blocked”.

**Q.** What about the “subjective effects produced by dexamphetamine” value [2] of the same compound?
**A.** Its value is “significantly attenuated”.

**Q.** What about the amphetamine use (amphetamine dependence [3]) of the same compound?
**A.** Its amphetamine use is “effective in reducing amphetamine use”.

**Q.** What about the “cue- and drug-induced methamphetamine seeking” value [4] of the same compound?
**A.** The value was “attenuated cue—but not drug-induced methamphetamine”.
